{
  "source": "patent US20210214303A1",
  "about": "“SCORPION VENOM BENZOQUINONE DERIVATIVES AND USES THEREOF” (priority 2018, published 2021)",
  "key": {"Candida. albicans": {"test_system": "Candida. albicans", "test": "activity against pathogenic fungus", "type": "cell-based"}, "E. coli": {"test_system": "E. coli", "test": "activity against gram negative E. coli", "type": "cell-based"}, "Jurkat cells": {"test_system": "Jurkat cells", "test": "Annexin V / viability dye flow cytometry apoptosis assay", "type": "cell-based", "conditions": "25 μM; 0, 4, 8 and 12 h", "description": "In this assay, Jurkat cells were incubated with either the red or blue 1,4 benzoquinone at a concentration of 25 μM for 0, 4, 8 and 12 h. Cells were then stained with the Fixable Viability Dye eFluor 780 and FITC Annexin V and analyzed using flow cytometry. Positive staining with Annexin V is a marker of early apoptosis, and positive staining with both Annexin V and the viability dye is a marker of late apoptosis/necrosis. Double negatives are live cells. Cells were grouped into three categories (live, early apoptotic, and late apoptotic/necrotic). Data from three independent experiments are shown as mean±SEM (standard error of mean)."}, "fresh human erythrocytes": {"test_system": "fresh human erythrocytes", "test": "Hemolysis assay", "type": "cell-based", "conditions": "2 hours, all concentrations tested (even higher than 100 μg/mL)", "description": "FIG. 14A illustrates a cytotoxic activity assay of the red and blue 1,4 benzoquinones. Hemolysis was evaluated using fresh human erythrocytes. Lysis was evaluated by the absorbance of the supernatant at 415 nm after 2 hours of incubation with different concentrations of the 1,4 benzoquinones. Triton X-100 was used as positive control.\nHemolysis assay: The hemolytic activity was evaluated for both of the 1,4 benzoquinones using fresh human erythrocytes. Fresh human erythrocytes were washed four times with phosphate buffered saline (PBS) and incubated for 2 h at 37° C. with different concentration of the 1,4 benzoquinones. A gradient of Triton X-100 was used as positive control of hemolysis. After incubation, the erythrocytes suspension was centrifuged at 400×g for 10 min and supernatant was recovered. Hemolysis was determined by the absorbance of the supernatant at 415 nm."}, "Jurkat (T cell leukemia)": {"test_system": "Jurkat (T cell leukemia)", "test": "cytotoxicity assay, LDH release", "type": "cell-based, human", "conditions": "1, 5, and 25 μM, 12 hours", "description": "(§1) Cytotoxicity to PBMCs and to Neoplastic Cells: The cytotoxicity of the 1,4 benzoquinones of the disclosure was tested with peripheral blood mononuclear cells (PBMCs) and various human neoplastic cell lines: A549 (adenocarcinomic lung epithelial cells), Jurkat (T cell leukemia), TE 671 (rhabdomyosarcoma cells) and SH-SY5Y (bone marrow neuroblastoma cells).\n(§2) PBMCs were obtained from healthy blood donors and isolated by Ficoll-Paque PLUS density gradient centrifugation and resuspended in RPMI-1640 medium supplemented with 10% fetal calf serum. Cells were incubated at 37° C. in 5% CO2 overnight and non-adherent cells were recovered and used for subsequent experiments. The neoplastic cell lines were cultured according to the ATCC guidelines.\n(§3) For cytotoxicity assays, cells were resuspended in DMEM without phenol red, supplemented with 2% heat-inactivated fetal calf serum. Cells were plated in 96-well polystyrene cell culture plates (2×10^4 to 2×10^5 cells/well depending on the cell type) and incubated at 37° C. in 5% CO2 for 8 hours to promote cell adhesion to the well's surface. The red and blue 1,4 benzoquinones were administered to achieve final concentrations of 1, 5, and 25 μM. Cells were then incubated at 37° C. in 5% CO2 for 12 hours. Following the incubation period, plates were centrifuged at 300×g for 10 minutes and supernatants were harvested to evaluate cell viability with the CytoTox 96@ Non-Radioactive Cytotoxicity Assay (Promega). This assay quantitatively measures lactate dehydrogenase (LDH), a stable cytosolic enzyme that is released upon cell lysis. The released LDH in the culture supernatants was measured with a colorimetric coupled enzymatic assay according to the manufacturer's instructions."}, "[1]": {"test_system": "A549 (adenocarcinomic lung epithelial cells)", "test": "cytotoxicity assay, LDH release", "type": "cell-based, human", "conditions": "1, 5, and 25 μM, 12 hours", "description": "as §1, §2, §3"}, "[2]": {"test_system": "TE 671 (rhabdomyosarcoma cells)", "test": "cytotoxicity assay, LDH release", "type": "cell-based, human", "conditions": "1, 5, and 25 μM, 12 hours", "description": "as §1, §2, §3"}, "[3]": {"test_system": "clinical isolates of methicillin-resistant S. aureus (MRSA)", "test": "Minimum inhibitory concentration, Table 1, MRSA clinical isolates", "type": "cell-based, Staphylococcus aureus"}, "[4]": {"test_system": "peripheral blood mononuclear cells (PBMCs)", "test": "cytotoxicity assay, LDH release", "type": "cell-based, human", "conditions": "25 μM, 12 hours", "description": "FIG. 14B illustrates a cytotoxic effect of the 1,4 benzoquinones of the disclosure on peripheral blood mononuclear cells (PBMCs). PBMCs were incubated with the red and blue 1,4 benzoquinones at a concentration of 25 μM for 12 hours, and cell death was evaluated by the release of the stable cytosolic enzyme lactate dehydrogenase. […] Each result is reported as the mean±SD.\nas §1, §2, §3"}, "Staphylococcus aureus [5]": {"test_system": "Staphylococcus aureus", "test": "broth microdilution assay (MIC)", "type": "cell-based", "conditions": "S. aureus, read-out: minimum inhibitory concentration (MIC)", "description": "FIG. 3D illustrates the determination of the minimal inhibitory concentrations (MICs) of the red and blue 1,4 benzoquinones against Staphylococcus aureus. The MICs determined by the broth microdilution assay are 4 μg/mL for the red 1,4 benzoquinone and 6 μg/mL for the blue 1,4 benzoquinone. Ampicillin was used as a positive control. Each result is reported as the mean±SD.\n(§4) This difference was confirmed using a broth microdilution assay (FIG. 3D). The minimum inhibitory concentration (MIC) for S. aureus growth was 4 μg/mL for the red 1,4 benzoquinone and 6 μg/mL for the blue 1,4 benzoquinone (FIG. 3D, Table 1). Ampicillin (MIC=0.5 μg/mL) was used as a positive control (ESCMID Eo (2003) Clin. Microbiol. Infect. 9: ix-xv; Pieterse et al., (2010) Brazil. J. Microbiol. 41: 133-145). These compounds were bactericidal at their MICs, killing 90% of S. aureus in 6 h and 99.9% in 24 h (Table 2)."}, "Staphylococcus aureus [6]": {"test_system": "Staphylococcus aureus", "test": "disk-diffusion assay", "type": "cell-based", "description": "Ampicillin (5 μg) was used as a positive control.\nas §4"}},
  "note": "“Also recorded” adds a separate entry of the source. Throughout, for sensitive/resistant (growth): key: S Sensitive (did not grow the crop); R resistant (bacterial growth).",
  "data": [
    {"smiles": "COC1=CC(=O)C(SC)=C(OC)C1=O", "note": "[red 1,4 benzoquinone, 3,5-dimethoxy-2-(methylthio)cyclohexa-2,5-diene-1,4-dione]", "values": [
      {"measurement": "activity against the pathogenic fungus Candida. albicans", "setting": "Candida. albicans", "value": "Neither 1,4 benzoquinone showed activity"},
      {"measurement": "activity against gram negative E. coli", "setting": "E. coli", "value": "neither compound was found to have appreciable activity; also recorded: Neither 1,4 benzoquinone showed activity"},
      {"measurement": "apoptosis (Annexin V staining, loss of cell membrane asymmetry)", "setting": "Jurkat cells", "value": "triggers apoptosis"},
      {"measurement": "hemolytic activity", "setting": "fresh human erythrocytes", "value": "no erythrocyte hemolysis was observed; also recorded: Neither 1,4 benzoquinone showed hemolytic activity"},
      {"measurement": "cytotoxic effect on Jurkat cells (LDH release)", "setting": "Jurkat (T cell leukemia)", "value": "comparably potent in inducing death"},
      {"measurement": "cytotoxic effect on A549 cells (LDH release)", "setting": "[1]", "value": "remained relatively unaffected"},
      {"measurement": "cytotoxic effect on TE 671 cells (LDH release)", "setting": "[2]", "value": "comparably potent in inducing death"},
      {"measurement": "MIC", "setting": "[3]; Staphylococcus aureus, MRSA", "value": "> 64", "unit": "µg/mL"},
      {"measurement": "MIC", "setting": "[3]; strain 01 2075", "value": ">64", "unit": "µg/mL"},
      {"measurement": "sensitive/resistant (growth)", "setting": "[3]; strain 01 2075, 0.5 μg/ml", "value": "R"},
      {"measurement": "sensitive/resistant (growth)", "setting": "[3]; strain 01 2075, 1 μg/ml", "value": "R"},
      {"measurement": "sensitive/resistant (growth)", "setting": "[3]; strain 01 2075, 2 μg/ml", "value": "R"},
      {"measurement": "sensitive/resistant (growth)", "setting": "[3]; strain 01 2075, 4 μg/ml", "value": "R"},
      {"measurement": "sensitive/resistant (growth)", "setting": "[3]; strain 01 2075, 8 μg/ml", "value": "R"},
      {"measurement": "sensitive/resistant (growth)", "setting": "[3]; strain 01 2075, 16 μg/ml", "value": "R"},
      {"measurement": "sensitive/resistant (growth)", "setting": "[3]; strain 01 2075, 32 μg/ml", "value": "R"},
      {"measurement": "sensitive/resistant (growth)", "setting": "[3]; strain 01 2075, 64 μg/ml", "value": "R"},
      {"measurement": "MIC", "setting": "[3]; strain 01 2104", "value": ">64", "unit": "µg/mL"},
      {"measurement": "sensitive/resistant (growth)", "setting": "[3]; strain 01 2104, 0.5 μg/ml", "value": "R"},
      {"measurement": "sensitive/resistant (growth)", "setting": "[3]; strain 01 2104, 1 μg/ml", "value": "R"},
      {"measurement": "sensitive/resistant (growth)", "setting": "[3]; strain 01 2104, 2 μg/ml", "value": "R"},
      {"measurement": "sensitive/resistant (growth)", "setting": "[3]; strain 01 2104, 4 μg/ml", "value": "R"},
      {"measurement": "sensitive/resistant (growth)", "setting": "[3]; strain 01 2104, 8 μg/ml", "value": "R"},
      {"measurement": "sensitive/resistant (growth)", "setting": "[3]; strain 01 2104, 16 μg/ml", "value": "R"},
      {"measurement": "sensitive/resistant (growth)", "setting": "[3]; strain 01 2104, 32 μg/ml", "value": "R"},
      {"measurement": "sensitive/resistant (growth)", "setting": "[3]; strain 01 2104, 64 μg/ml", "value": "R"},
      {"measurement": "sensitive/resistant (growth)", "setting": "[3]; strain 09 3001, 0.5 μg/ml", "value": "R"},
      {"measurement": "sensitive/resistant (growth)", "setting": "[3]; strain 09 3001, 1 μg/ml", "value": "R"},
      {"measurement": "sensitive/resistant (growth)", "setting": "[3]; strain 09 3001, 2 μg/ml", "value": "R"},
      {"measurement": "sensitive/resistant (growth)", "setting": "[3]; strain 09 3001, 4 μg/ml", "value": "R"},
      {"measurement": "sensitive/resistant (growth)", "setting": "[3]; strain 09 3001, 8 μg/ml", "value": "R"},
      {"measurement": "sensitive/resistant (growth)", "setting": "[3]; strain 09 3001, 16 μg/ml", "value": "R"},
      {"measurement": "sensitive/resistant (growth)", "setting": "[3]; strain 09 3001, 32 μg/ml", "value": "R"},
      {"measurement": "sensitive/resistant (growth)", "setting": "[3]; strain 09 3001, 64 μg/ml", "value": "R"},
      {"measurement": "MIC", "setting": "[3]; strain 21 2001", "value": ">64", "unit": "µg/mL"},
      {"measurement": "sensitive/resistant (growth)", "setting": "[3]; strain 21 2001, 0.5 μg/ml", "value": "R"},
      {"measurement": "sensitive/resistant (growth)", "setting": "[3]; strain 21 2001, 1 μg/ml", "value": "R"},
      {"measurement": "sensitive/resistant (growth)", "setting": "[3]; strain 21 2001, 2 μg/ml", "value": "R"},
      {"measurement": "sensitive/resistant (growth)", "setting": "[3]; strain 21 2001, 4 μg/ml", "value": "R"},
      {"measurement": "sensitive/resistant (growth)", "setting": "[3]; strain 21 2001, 8 μg/ml", "value": "R"},
      {"measurement": "sensitive/resistant (growth)", "setting": "[3]; strain 21 2001, 16 μg/ml", "value": "R"},
      {"measurement": "sensitive/resistant (growth)", "setting": "[3]; strain 21 2001, 32 μg/ml", "value": "R"},
      {"measurement": "sensitive/resistant (growth)", "setting": "[3]; strain 21 2001, 64 μg/ml", "value": "R"},
      {"measurement": "PBMCs killed", "setting": "[4]", "value": 60, "unit": "%"},
      {"measurement": "cytotoxic effect on PBMCs (LDH release)", "setting": "[4]", "value": "cytotoxic against PBMCs"},
      {"measurement": "MIC", "setting": "Staphylococcus aureus [5]", "value": 4, "unit": "µg/mL"},
      {"measurement": "inhibition of S. aureus growth", "setting": "Staphylococcus aureus [6]", "value": "clear inhibition; also recorded: inhibitory activity"}
    ]}
  ]
}
